Marks after values point to notes of the source that are not given here.
What was measured:
[1] = system: transporters at major organ sites; test: Prediction of transporter-mediated inhibition / DDI potential; set-up: species or system human; details: of 11 transporters; FDA criteria
[2] = known in vivo P-gp inhibitor; cited from earlier work
human OCT1 [3] = molecular target: T1, human OCT1 (Homo sapiens, UniProt O15245); test: cell-based
T1 sequence (O15245 1-554): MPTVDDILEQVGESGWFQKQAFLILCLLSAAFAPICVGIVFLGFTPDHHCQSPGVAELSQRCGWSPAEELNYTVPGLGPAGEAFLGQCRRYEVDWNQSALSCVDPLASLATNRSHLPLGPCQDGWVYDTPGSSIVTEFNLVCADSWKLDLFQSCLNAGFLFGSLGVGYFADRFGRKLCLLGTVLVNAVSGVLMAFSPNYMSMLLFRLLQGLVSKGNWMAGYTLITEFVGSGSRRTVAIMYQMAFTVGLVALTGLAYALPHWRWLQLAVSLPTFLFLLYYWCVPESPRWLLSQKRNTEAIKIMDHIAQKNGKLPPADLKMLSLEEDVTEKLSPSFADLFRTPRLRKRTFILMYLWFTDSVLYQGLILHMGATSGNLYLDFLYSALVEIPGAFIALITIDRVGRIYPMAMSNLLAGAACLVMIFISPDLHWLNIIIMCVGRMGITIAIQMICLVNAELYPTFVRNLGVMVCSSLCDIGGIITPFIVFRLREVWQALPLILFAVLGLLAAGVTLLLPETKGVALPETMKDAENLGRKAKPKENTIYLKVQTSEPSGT

human MATE1 = molecular target: T2, human MATE1 (Homo sapiens, UniProt Q96FL8); test: cell-based
T2 sequence (Q96FL8 1-570): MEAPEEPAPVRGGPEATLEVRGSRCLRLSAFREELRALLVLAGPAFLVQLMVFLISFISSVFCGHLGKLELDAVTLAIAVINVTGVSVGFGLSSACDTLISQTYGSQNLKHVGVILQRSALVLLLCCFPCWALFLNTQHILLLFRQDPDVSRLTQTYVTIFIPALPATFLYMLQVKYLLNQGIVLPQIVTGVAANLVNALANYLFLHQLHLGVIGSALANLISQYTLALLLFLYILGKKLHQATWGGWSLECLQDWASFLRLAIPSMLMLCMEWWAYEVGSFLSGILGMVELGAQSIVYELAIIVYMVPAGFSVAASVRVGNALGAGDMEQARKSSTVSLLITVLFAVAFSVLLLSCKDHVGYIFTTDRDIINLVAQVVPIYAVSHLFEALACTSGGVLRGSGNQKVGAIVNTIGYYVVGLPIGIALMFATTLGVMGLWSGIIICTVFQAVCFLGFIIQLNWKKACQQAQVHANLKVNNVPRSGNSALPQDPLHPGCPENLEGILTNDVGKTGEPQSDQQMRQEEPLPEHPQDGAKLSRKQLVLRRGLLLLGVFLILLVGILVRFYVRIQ

human MATE2 = human MATE2 (Homo sapiens, UniProt Q86VL8); test: cell-based
human OAT1 = molecular target: T3, human OAT1 (Homo sapiens, UniProt Q4U2R8); test: cell-based
T3 sequence (Q4U2R8 1-563): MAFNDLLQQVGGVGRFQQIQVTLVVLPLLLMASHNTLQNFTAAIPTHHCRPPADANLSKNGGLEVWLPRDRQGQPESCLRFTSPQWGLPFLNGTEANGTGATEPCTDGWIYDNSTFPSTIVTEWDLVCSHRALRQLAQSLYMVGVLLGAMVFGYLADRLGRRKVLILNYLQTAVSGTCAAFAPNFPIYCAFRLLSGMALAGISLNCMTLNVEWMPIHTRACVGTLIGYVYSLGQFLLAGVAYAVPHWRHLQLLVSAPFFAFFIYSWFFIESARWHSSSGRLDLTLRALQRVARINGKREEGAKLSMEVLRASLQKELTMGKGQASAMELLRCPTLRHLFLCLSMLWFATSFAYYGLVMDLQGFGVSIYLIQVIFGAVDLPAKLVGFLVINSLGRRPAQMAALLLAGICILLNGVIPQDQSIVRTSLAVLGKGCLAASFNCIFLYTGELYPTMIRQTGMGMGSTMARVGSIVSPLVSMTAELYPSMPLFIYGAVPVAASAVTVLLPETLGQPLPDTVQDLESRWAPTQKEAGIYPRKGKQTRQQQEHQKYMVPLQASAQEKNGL

human OAT3 [4] = molecular target: T4, human OAT3 (Homo sapiens, UniProt Q8TCC7); test: cell-based
T4 sequence (Q8TCC7 1-542): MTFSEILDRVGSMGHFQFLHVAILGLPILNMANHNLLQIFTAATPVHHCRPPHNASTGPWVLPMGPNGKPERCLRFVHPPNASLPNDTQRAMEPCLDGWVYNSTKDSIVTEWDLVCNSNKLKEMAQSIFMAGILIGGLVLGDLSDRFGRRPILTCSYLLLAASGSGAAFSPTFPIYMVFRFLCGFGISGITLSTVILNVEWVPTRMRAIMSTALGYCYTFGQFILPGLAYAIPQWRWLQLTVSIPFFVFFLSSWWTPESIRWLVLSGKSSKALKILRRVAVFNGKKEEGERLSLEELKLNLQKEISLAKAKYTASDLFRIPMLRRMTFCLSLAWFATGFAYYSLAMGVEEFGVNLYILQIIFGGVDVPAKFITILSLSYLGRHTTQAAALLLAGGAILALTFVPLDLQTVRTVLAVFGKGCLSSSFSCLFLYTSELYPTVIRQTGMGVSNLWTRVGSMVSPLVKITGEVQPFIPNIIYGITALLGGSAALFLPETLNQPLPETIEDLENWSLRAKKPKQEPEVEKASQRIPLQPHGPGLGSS

P-gp = P-gp (Homo sapiens, UniProt P08183); test: biochemical
BCRP [5] = molecular target: T5, BCRP (Homo sapiens, UniProt Q9UNQ0); test: biochemical
T5 sequence (Q9UNQ0 1-655): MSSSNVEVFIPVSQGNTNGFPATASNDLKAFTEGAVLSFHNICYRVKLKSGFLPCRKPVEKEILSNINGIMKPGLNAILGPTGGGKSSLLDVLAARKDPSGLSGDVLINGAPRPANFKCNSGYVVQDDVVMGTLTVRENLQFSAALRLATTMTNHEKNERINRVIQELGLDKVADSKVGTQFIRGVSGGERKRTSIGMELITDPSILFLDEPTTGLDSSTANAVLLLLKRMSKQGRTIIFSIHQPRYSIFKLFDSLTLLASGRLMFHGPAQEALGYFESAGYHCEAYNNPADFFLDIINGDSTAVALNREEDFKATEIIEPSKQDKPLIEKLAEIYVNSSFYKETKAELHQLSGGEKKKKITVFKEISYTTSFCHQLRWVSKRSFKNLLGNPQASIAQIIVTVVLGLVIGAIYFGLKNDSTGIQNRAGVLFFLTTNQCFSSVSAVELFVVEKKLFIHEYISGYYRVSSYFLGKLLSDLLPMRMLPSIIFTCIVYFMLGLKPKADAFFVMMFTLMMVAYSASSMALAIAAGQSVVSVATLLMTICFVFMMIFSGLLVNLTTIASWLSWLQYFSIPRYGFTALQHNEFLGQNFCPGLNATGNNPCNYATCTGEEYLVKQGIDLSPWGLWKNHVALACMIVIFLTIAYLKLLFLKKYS

human OATP2B1 = molecular target: T6, human OATP2B1 (Homo sapiens, UniProt O94956); test: cell-based; details: IC50 OATP2B1, experimental, mean ± SD; stable cells; substrate ES
T6 sequence (O94956 1-709): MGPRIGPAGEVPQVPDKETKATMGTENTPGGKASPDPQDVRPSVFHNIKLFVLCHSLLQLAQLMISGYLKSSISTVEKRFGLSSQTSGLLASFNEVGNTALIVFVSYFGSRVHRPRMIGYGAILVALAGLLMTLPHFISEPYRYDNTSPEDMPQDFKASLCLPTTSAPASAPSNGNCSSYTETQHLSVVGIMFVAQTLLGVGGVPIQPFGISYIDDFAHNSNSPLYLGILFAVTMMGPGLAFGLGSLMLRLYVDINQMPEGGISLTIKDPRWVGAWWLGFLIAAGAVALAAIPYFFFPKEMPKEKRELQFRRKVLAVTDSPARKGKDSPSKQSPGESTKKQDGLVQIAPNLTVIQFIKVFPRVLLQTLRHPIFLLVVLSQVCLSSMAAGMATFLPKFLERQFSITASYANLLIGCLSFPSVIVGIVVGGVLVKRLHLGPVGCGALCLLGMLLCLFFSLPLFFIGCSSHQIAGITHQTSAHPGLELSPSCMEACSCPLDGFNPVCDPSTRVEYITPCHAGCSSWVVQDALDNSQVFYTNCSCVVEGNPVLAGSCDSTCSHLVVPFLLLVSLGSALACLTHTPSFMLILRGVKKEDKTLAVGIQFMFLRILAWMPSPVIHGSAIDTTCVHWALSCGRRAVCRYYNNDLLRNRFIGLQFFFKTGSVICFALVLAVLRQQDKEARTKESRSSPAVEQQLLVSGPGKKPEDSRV

human OATP1B1 = molecular target: T7, human OATP1B1 (Homo sapiens, UniProt Q9Y6L6); details: inhibits EG at one-tenth (or lower) the concentration that inhibits ES
T7 sequence (Q9Y6L6 1-691): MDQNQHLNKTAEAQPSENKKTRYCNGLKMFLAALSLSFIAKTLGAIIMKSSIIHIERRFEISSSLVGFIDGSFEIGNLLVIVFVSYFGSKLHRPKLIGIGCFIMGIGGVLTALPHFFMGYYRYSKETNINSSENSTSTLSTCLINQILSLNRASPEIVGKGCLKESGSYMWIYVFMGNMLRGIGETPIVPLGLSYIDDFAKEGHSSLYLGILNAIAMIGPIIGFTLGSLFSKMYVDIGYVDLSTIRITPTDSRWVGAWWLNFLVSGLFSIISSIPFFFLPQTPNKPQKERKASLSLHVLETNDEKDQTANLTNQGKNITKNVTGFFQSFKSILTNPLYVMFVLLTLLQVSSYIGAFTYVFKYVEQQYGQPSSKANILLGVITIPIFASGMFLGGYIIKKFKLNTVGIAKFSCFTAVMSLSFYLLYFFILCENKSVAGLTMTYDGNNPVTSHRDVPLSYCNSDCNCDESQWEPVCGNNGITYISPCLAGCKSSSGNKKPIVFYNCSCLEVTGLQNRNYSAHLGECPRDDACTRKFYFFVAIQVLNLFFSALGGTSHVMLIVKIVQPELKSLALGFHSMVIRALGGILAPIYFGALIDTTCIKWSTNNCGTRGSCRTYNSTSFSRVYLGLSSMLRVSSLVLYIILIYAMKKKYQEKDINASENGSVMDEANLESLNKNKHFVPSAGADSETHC

human OAT3 [6] = molecular target: T4, human OAT3; details: human
human OCT1 [7] = molecular target: T1, human OCT1; details: human
BCRP [8] = molecular target: T5, BCRP; details: cited from earlier work

P-gp, sequence (P08183 whole entry): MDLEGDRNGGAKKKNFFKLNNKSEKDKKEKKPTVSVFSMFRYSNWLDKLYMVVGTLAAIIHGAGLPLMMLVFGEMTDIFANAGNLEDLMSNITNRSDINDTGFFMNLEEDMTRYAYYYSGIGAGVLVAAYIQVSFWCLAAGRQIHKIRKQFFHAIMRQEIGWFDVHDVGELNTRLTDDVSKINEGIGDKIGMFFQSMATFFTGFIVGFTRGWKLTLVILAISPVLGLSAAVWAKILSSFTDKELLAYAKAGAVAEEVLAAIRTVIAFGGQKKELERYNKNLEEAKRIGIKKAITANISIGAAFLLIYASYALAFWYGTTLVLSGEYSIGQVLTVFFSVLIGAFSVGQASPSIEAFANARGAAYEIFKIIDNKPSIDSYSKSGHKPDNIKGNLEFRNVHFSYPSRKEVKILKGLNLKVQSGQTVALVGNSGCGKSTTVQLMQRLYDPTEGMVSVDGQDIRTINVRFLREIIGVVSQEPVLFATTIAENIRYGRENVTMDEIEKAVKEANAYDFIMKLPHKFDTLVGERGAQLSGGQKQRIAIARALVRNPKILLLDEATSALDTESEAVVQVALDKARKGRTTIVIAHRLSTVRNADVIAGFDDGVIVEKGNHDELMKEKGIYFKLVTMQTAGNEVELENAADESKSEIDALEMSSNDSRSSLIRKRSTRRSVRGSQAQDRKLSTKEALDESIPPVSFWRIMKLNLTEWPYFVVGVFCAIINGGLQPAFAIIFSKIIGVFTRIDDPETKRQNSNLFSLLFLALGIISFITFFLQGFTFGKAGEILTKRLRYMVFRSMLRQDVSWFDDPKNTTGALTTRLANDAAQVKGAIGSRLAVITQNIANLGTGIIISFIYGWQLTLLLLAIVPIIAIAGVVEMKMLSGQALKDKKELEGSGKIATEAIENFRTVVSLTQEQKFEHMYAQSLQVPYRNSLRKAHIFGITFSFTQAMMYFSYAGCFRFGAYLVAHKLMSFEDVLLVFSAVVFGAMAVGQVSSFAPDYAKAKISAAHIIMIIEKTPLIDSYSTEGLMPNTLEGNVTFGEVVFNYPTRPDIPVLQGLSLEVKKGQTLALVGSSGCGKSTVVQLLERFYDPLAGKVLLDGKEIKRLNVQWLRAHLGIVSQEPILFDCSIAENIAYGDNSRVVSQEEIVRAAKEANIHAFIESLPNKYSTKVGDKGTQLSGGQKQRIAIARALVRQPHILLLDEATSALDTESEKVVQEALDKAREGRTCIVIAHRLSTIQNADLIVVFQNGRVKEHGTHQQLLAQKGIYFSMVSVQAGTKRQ
human MATE2, sequence (Q86VL8 1-566 isoform Q86VL8-3): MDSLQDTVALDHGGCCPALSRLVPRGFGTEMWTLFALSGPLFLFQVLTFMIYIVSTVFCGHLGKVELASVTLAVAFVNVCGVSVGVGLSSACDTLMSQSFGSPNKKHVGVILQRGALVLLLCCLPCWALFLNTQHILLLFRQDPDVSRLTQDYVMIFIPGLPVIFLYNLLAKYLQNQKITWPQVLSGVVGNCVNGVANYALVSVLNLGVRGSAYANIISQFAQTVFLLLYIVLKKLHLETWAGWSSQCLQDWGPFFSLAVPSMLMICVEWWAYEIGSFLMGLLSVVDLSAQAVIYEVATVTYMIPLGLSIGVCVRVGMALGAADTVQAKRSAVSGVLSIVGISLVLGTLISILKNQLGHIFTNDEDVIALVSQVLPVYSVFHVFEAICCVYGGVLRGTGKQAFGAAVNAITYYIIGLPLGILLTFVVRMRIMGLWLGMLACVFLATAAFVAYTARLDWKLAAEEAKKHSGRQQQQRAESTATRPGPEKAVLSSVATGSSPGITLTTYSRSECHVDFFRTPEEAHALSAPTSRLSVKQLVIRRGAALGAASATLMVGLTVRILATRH

SMILES | No. of transporters at major organ sites inhibited at clinical concentrations [1] | effect on plasma levels of P-gp substrates [2] | IC50 (human OCT1 [3]) [µM] | IC50 (human MATE1) [µM] | IC50 (human MATE2) [µM] | IC50 (human OAT1) [µM] | IC50 (human OAT3 [4]) [µM] | IC50 (P-gp) [µM] | IC50 (BCRP [5]) [µM] | IC50 (human OATP2B1) [µM] | potency difference of the inhibitor for [3H]-EG vs [3H]-ES as OATP1B1 probes (human OATP1B1) [fold] | Cu,max/IC50 OAT3 (human OAT3 [6]) | Iu,in,max/IC50 OCT1 (human OCT1 [7]) | inhibition of BCRP (in words) (BCRP [8])
CC[C@H]1OC(=O)[C@H](C)[C@@H](O[C@H]2C[C@@](C)(OC)[C@@H](O)[C@H](C)O2)[C@H](C)[C@@H](O[C@@H]2O[C@H](C)C[C@H](N(C)C)[C@H]2O)[C@](C)(O)C[C@@H](C)CN(C)[C@H](C)[C@@H](O)[C@]1(C)O [Azithromycin] | 1 | increases plasma levels of the non‐sedating antihistamine, fexofenadine, and the anticoagulant, ximelagatran | > 50 | > 50 | > 50 | > 50 | > 50 | 18 | > 50 |  |  |  |  | 
Cc1oncc1C(=O)Nc1ccc(C(F)(F)F)cc1 [Leflunomide] | 2 |  | > 100 | 9.5 ± 5.5 |  | > 100 |  | > 100 |  | 81.9 ± 36.1 |  |  |  | 
CCCCc1nc(Cl)c(CO)n1Cc1ccc(-c2ccccc2-c2nn[nH]n2)cc1 [Losartan] | 4 |  | > 100 |  | > 100 |  |  | > 100 | 4.8 ± 1.1 | 2.5 ± 0.7 | > 10 | 0.02 ^a |  | 
COc1ccc2cc1Oc1ccc(cc1)C[C@H]1c3cc(c(OC)cc3CCN1C)Oc1c(OC)c(OC)cc3c1[C@H](C2)N(C)CC3 [Tetrandrine] | 1 |  | 8.6 | 1.2 ± 0.2 | > 10 | > 10 | > 10 | 3.8 ± 1.1 | > 10 |  |  |  | 0.02 | 
CN1CC(=O)N2[C@H](c3ccc4c(c3)OCO4)c3[nH]c4ccccc4c3C[C@@H]2C1=O [tadalafil] |  |  |  |  |  |  |  |  |  |  |  |  |  | weak inhibitors of BCRP
CCCc1nc(C)c2c(=O)[nH]c(-c3cc(S(=O)(=O)N4CCN(CC)CC4)ccc3OCC)nn12 [vardenafil] |  |  |  |  |  |  |  |  |  |  |  |  |  | weak inhibitors of BCRP

Source: PMC8217266 (Clinical Pharmacology and Therapeutics, 2021)
